Drawing on paper PMC7509217 (Cellular and Molecular Gastroenterology and Hepatology, 2020), this text covers IC50 for 1 compound.

As usually defined, the IC50 is the concentration that inhibits the measured activity by half. Low values mean greater potency, high ones weaker potency.

The target in this experiment is rat ACC2 (acetyl-CoA carboxylase 2) (Rattus norvegicus, UniProt O70151). The experiment is described as follows: citrate-activated ACC enzyme, […]bicarbonate incorporation into malonyl-CoA. The experiment is classed as biochemical.
rat ACC2 (acetyl-CoA carboxylase 2), sequence (O70151 1-2456): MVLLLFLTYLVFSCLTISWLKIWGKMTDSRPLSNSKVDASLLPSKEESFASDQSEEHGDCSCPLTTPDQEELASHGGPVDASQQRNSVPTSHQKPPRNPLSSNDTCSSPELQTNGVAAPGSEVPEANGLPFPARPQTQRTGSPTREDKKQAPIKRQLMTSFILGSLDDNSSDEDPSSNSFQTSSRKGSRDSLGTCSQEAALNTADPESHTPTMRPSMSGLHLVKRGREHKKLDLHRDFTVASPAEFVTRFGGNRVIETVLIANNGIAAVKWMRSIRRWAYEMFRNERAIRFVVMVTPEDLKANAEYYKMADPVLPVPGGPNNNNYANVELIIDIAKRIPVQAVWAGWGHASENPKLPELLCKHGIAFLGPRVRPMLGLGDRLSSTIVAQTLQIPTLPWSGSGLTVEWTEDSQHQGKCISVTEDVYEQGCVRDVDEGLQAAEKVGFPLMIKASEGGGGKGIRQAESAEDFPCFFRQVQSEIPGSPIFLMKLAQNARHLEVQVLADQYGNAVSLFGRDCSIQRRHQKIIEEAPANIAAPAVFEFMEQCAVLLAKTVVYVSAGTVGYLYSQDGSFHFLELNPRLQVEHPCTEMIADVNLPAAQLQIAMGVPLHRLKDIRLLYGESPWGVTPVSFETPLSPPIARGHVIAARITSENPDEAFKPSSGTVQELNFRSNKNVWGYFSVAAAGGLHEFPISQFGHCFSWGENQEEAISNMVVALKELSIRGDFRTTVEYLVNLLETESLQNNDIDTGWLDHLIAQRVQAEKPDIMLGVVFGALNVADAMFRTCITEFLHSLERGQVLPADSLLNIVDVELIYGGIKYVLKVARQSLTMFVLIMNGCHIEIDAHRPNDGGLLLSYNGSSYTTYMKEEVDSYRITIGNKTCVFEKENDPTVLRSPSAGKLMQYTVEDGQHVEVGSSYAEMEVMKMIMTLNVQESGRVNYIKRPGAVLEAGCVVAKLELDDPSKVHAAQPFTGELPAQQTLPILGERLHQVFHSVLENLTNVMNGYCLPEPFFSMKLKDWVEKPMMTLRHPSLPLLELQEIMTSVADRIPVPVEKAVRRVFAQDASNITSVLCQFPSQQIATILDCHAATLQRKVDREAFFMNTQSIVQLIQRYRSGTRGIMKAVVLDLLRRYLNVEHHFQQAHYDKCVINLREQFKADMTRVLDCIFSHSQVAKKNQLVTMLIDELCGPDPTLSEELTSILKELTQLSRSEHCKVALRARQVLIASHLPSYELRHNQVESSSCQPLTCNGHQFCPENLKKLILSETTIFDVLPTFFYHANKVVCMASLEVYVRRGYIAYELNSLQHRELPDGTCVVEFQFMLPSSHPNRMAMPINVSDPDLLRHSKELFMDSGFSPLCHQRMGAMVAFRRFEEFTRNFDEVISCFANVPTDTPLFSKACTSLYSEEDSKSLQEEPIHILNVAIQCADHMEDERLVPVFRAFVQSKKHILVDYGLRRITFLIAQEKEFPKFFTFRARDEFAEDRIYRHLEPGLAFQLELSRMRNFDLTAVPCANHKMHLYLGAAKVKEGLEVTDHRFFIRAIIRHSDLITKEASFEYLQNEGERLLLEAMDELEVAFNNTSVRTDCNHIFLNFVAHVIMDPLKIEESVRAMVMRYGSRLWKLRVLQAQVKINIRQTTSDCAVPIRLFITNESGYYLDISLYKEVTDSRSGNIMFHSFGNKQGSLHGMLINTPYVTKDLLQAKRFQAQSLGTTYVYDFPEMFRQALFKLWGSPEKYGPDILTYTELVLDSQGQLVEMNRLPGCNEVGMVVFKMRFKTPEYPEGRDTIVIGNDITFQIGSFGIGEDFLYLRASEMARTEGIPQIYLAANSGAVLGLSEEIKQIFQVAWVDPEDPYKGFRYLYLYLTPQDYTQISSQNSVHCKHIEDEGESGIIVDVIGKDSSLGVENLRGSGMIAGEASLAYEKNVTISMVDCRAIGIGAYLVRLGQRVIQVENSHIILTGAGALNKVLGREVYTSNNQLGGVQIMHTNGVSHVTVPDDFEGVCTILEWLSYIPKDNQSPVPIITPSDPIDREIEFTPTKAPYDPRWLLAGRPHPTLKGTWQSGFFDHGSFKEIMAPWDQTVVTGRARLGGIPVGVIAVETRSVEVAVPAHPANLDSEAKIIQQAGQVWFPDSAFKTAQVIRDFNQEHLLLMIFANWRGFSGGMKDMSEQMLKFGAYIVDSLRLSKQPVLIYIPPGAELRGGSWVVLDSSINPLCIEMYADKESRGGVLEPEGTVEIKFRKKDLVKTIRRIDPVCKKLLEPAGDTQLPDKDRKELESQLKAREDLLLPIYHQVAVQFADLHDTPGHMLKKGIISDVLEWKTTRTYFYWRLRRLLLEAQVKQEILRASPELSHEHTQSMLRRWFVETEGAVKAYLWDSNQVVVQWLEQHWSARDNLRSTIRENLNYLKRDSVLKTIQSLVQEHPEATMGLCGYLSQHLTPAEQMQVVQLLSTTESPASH

`COc1cc(C(=O)N2CCC3(CC2)CC(=O)c2c(cnn2C(C)C)C3)cc(-c2ccc(C(=O)O)cc2)n1` [PF-05221304] yielded an IC50 of 8.2 ± 4.1 nM.
